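Five compound concentrations were applied to cells in 96-well plates for 48 hours; endpoints were derived by simple linear interpolation of the resulting dose-response curve. GI50: concentration for 50% inhibition of growth. TGI denotes the concentration required for complete inhibition of growth.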 Where a SMILES comes first, the peptide text is derived from it. The star is where a group is joined. Boc = CC(C)(C)OC(=O)*
Experiments:
Assay in all cases: NCI anticancer screen, dose series, 48 h
U251 CNS = system: U251 CNS
EKVX NSCLC = system: EKVX NSCLC
MDA-MB-231 breast = system: MDA-MB-231 breast
HOP-92 NSCLC = system: HOP-92 NSCLC
SW-620 colon = system: SW-620 colon
T-47D breast = system: T-47D breast
DU-145 prostate = system: DU-145 prostate
BT-549 breast = system: BT-549 breast
786-0 renal = system: 786-0 renal
A549 NSCLC = system: A549 NSCLC

SMILES	TGI (U251 CNS) [µM]	TGI (EKVX NSCLC) [µM]	TGI (MDA-MB-231 breast) [µM]	TGI (HOP-92 NSCLC) [µM]	TGI (SW-620 colon) [µM]	TGI (T-47D breast) [µM]	TGI (DU-145 prostate) [µM]	TGI (BT-549 breast) [µM]	TGI (786-0 renal) [µM]	TGI (A549 NSCLC) [µM]	GI50 (U251 CNS) [µM]	GI50 (MDA-MB-231 breast) [µM]
CCOC(=O)NC(=S)NN(C)C1=NCC(C)(C)S1	> 100	> 100	> 100	> 100	> 100	> 100	> 100	> 100	> 100	> 100		
CSc1c(C#N)c(N)n2c1C(=O)N(c1ccccc1)C2=S	> 100	> 100	45.6	> 100	> 100	> 100	> 100	> 100	> 100	> 100		
O=c1oc(-c2ccc(O)c(O)c2)cc2cccc(O)c12	79.1	51.2	46.9	43.4	78.2	9.46	70.2	49	85.9	> 100	17.1	14.1
CC1CC[C@@]2(OC1)OC1C[C@H]3[C@@H]4CC[C@H]5CC(OC6OC(CO)C(OC7OC(CO)C(O)C(O)C7OC7OC(CO)C(O)C(O)C7O)C(O)C6O)CCC5(C)[C@H]4CCC3(C)C1[C@@H]2C (some centres not stated)	2.74	2.21	3.04	11.8	1.94	8.51	1.81	3.62	5.44	7.93		
O=C(NCCN1CCOCC1)c1ccc2cc(C(=O)N3CC(CCl)c4ccc([N+](=O)[O-])cc43)[nH]c2c1 (configuration not stated)	57.8	86.3	36.3	38.4	> 100	> 100	49.3	92.3	38.4	26.1		
CCOc1cc(C2CC(c3ccc(NS(=O)(=O)c4cc([N+](=O)[O-])ccc4C)cc3)=NN2C(=O)c2ccccc2)ccc1O (configuration not stated)	> 100	61.4	48.1	47.6	> 100	71.3	> 100	93.3	46.7	> 100		
CN(C)c1ccc(C=C2N=C(c3ccccc3)N(c3cc(C(=O)c4ccccc4)ccc3N3C(=O)/C(=C/c4ccc(N(C)C)cc4)N=C3c3ccccc3)C2=O)cc1	29.5	> 100	> 100	> 100	> 100	> 100	> 100	> 100	> 100	> 100		
CN(C)C(=S)S	> 100	> 100	> 100	> 100	> 100	> 100	> 100	> 100	> 100	> 100		
CC(C)/C(Cl)=N\OC(=O)Nc1ccc(C#N)cc1	31.9	7.31	28.1	2.98	3.36	40.2	32.2	26.6	11.8	39.9		
CCOC(=N)n1c(=O)n(C2=NCCN2)c2ccccc21	> 100	> 100	> 100	> 100	> 100	> 100	> 100	> 100	> 100	> 100		
Nc1c(-c2cccc3ccccc23)c2ccc([N+](=O)[O-])cc2c(=O)n1-c1nc2ccccc2s1	> 50.5	17.4	> 47.5	> 55.5	> 100	> 100	> 100	> 100	> 36.2	> 53.4		
COc1ccc(CC(O)CN2CCOCC2)cc1 (configuration not stated)	> 100	> 100	> 100	> 100	> 100	> 100	> 100	> 100	> 100	> 100		
Cc1csc(-c2cn(C)c3c2C(=O)C(N)=CC3=O)n1	> 100	> 100	> 100	> 100	> 100	> 100	> 100	> 100	> 100	8.76		
CN(C)CCCN1C(=S)N(CCCN(C)C)c2c3cc(O)ccc3nc3c([N+](=O)[O-])ccc1c23	28	16.2	25.5	16.1	> 42	9.48	16.5	28	8.55	9.73		
COc1ccc(C#CC(=O)O)c(OC)c1	> 100	> 100	> 100	> 100	> 100	> 100	> 100	> 100	> 100	> 100		
COc1cc(C2SCC(=O)N2c2ccc(NC(=O)c3ccc(N4C(=O)CSC4c4cc(OC)c(OC)c(OC)c4)cc3)cc2)cc(OC)c1OC (configuration not stated)	> 100	> 100	> 100	79.1	> 100	> 100	> 100	> 100	> 100	> 100		

SMILES	TGI (U251 CNS) [µM]	TGI (EKVX NSCLC) [µM]	TGI (MDA-MB-231 breast) [µM]	TGI (HOP-92 NSCLC) [µM]	TGI (SW-620 colon) [µM]	TGI (T-47D breast) [µM]	TGI (DU-145 prostate) [µM]	TGI (BT-549 breast) [µM]	TGI (786-0 renal) [µM]	TGI (A549 NSCLC) [µM]	GI50 (U251 CNS) [µM]	GI50 (MDA-MB-231 breast) [µM]
NNC(=O)c1ccc[n+](CCc2ccccc2)c1	> 100	> 100	> 100	> 100	> 100	> 100	> 100	> 100	> 100	> 100		
O=C1/C(=C\c2cccc(Oc3ccccc3)c2)S(=O)(=O)C(c2ccccc2)N1Cc1ccccc1 (configuration not stated)	> 100	71.9	68.1	73.3	> 100	> 100	74	98.6	40.1	> 100		
Brc1cccc(Nc2nc(-c3cccs3)nc3ccc(Br)cc23)c1	> 100	98.1	64.6	> 100	> 100	> 100	> 100	> 100	> 100	> 100		
CC(=O)N/N=C1\NC(=O)C[C@H]2[C@@H]3CC=C4C[C@@H](OC(C)=O)CC[C@]4(C)[C@H]3CC[C@]12C	28.7	> 100	39.3	31.9	> 100	> 100	> 100	32.7	43.1	> 100		
O=c1c2cc3c(cc2[nH]c2ncccc12)OCO3	> 10	> 10	> 10	> 10	> 10	> 10	> 10	> 10	> 10	> 10		
CCN(CC)CCOc1ccc(N2C(=O)c3cc(OC)c(OC)cc3C2=O)cc1	> 100	> 100	> 100	> 100	> 100	> 100	> 100	> 100	> 100	> 100		
CC(C)(C)NC(=O)/C(=C\Sc1ccccc1)c1ccc2c(c1)OCO2	98.6	> 100	52.8	55.1	> 100	> 100	> 100	> 100	> 100	> 100		
CC(C)(C)OC(=O)NCC(=O)NCC(=O)NCC(=O)NCC(=O)O (Boc-GGGG-OH)	> 100	> 100	> 100	> 100	> 100	> 100	> 100	> 100	> 100	> 100		
CC(C)COP(=O)(OCC(C)C)C(NS(=O)(=O)c1ccccc1)(C(F)(F)F)C(F)(F)F	17.3	19	5.56	7.64	41.6	9.34	29.8	19.6	25.7	14.4		
C/C=C/C=C/c1nc(C#N)c(N)o1	> 100	> 100	> 100	> 100	> 100	> 100	> 100	> 100	> 100	> 100		
CCCn1c(CN(Cc2nc3ccccc3n2CCC)Cc2nc3ccccc3n2CCC)nc2ccccc21	> 100	40.4	7.86	13.3	> 100	28.6	> 88.5	> 58.4	> 32.3	> 64.4		
Cc1c(S(=O)(=O)/N=C(\N)Nc2ccc(Cl)cc2)sc2ccc(Cl)cc12	30.3	33.4	32.9	42.2	58.1	> 100	36.2	58	33.7	46.8		
C=CC[C@]12C[C@@H](C(=O)OC)N(C(=O)OC)[C@H]1N(S(=O)(=O)c1ccccc1)c1ccccc12	> 100	> 100	> 100	> 100	> 100	> 100	> 100	> 100	> 100	> 100		
C/C(CC1C2CCCC1C2)=N\NC(N)=O (configuration not stated)	> 100	> 100	> 100	> 100	> 100	> 100	> 100	> 100	> 100	> 100		
CCN(C(=S)N[C@@H](Cc1ccccc1)C(=O)N[C@@H](CC(C)C)C(=O)OC)c1ccccc1	> 100	> 100	> 100	> 100	> 100	> 100	> 100	> 100	> 100	> 100		
O=P(c1ccccc1)(c1ccccc1)N1O[C@@H](c2ccccc2)C=C[C@H]1c1ccccc1	16.9	24.1	21.1	25.6	31.8	20	26.3	32.4	23.3	24		

Reference: PubChem BioAssay (NCI)
